The nature of data set [1]: Foaming property (initial foamability and foam stability), semi-micro TK method. In kind it is physicochemical. The note with it: 1% solution. An excerpt:
As samples for measuring initial foamability and foam stability, samples prepared under the same conditions as those used for measuring Krafft point were used (Table 14). […] The semi-micro TK method was used for measurement, and mean values were taken after measuring three times.
The tests were repeated three times and a mean value was taken.
Experiments were repeated three times, and a mean value was taken. For the experiment, a 1% aqueous solution was used.

Data set [2] is described as follows: Surface tension and cmc, Kruss tensiometer K12. In kind it is physicochemical. As for the experimental part:
Samples of which surface tensions were to be measured were prepared by mixing SLS and a cationic compound in a mole ratio of 1:1, wherein deionized water was used as water, and a container for measurement was immersed in a cleaning solution for more than 3 hours, washed with water and acetone, dried in an oven, and then used.
A ring method was used, and after measuring 5 times, a mean value was taken. Solutions of 1%, 0.1%, 0.01%, and 0.001% by weight ratio of each of the cationic compounds were prepared to use for the tests.

The nature of data set [3]: Phase stability (appearance) of sample solutions. The note with it: for Phase stability (appearance of sample solution): 1% aqueous solution.
Text: Concentration of a mixed system was controlled to 2% aqueous solution, and a mixing ratio of SLS and the cationic compound was controlled to 1:1 by mole ratio so that changes in physical properties could be remarkably shown (Table 1).
Data set [4] can be described thus: Measurement of Krafft point (cloudiness on cooling, transparency on re-heating). The note with it: 1% solution. In kind it is physicochemical. As for the experimental part:
In the Krafft point test, the temperature when the solution clouded through the previous test becomes transparent again while elevating the temperature were measured.
The temperature when cloudiness begins was measured while cooling the transparent cationic compound solution (condition of lowering temperature). Additionally, the temperature when the solution becomes transparent was measured while elevating the temperature of the cloudy solution (condition of elevating temperature).
Also, while elevating the temperature of the clouded solution, temperatures when the solutions became transparent again were measured (condition when elevating temperature).

Data set [5] can be described thus: Stability to hard water (10,000 ppm CaCl2 hard water added until cloudiness). The note with it: for Precipitation in hard water: 0.5% (weight ratio), 100 ml sample. Type of data set: physicochemical. As for the experimental part: After dissolving 11.69 g of CaCl2.2H2O in 1 liter of water to prepare hard water of 10,000 ppm, it was slowly added to a 0.5% aqueous solution sample, and stability to hard water was evaluated using the amount of hard water added until cloudiness began.
Hard water of 10,000 ppm prepared by dissolving 11.69 g of CaCl2.2H2O in 1 L of water was used for the tests. Stability to hard water was measured by adding hard water until pearl is appear, using 0.5% (weight ratio) of the cationic compound and 100 ml of the sample. This test was repeated by three times, and a mean value was taken.
Hard water at a 10,000 ppm concentration prepared by dissolving 11.69 g of CaCl2.2H2O in 1 L of water was used for the experiments. […] The tests were repeated by three times, and a mean value was measured.

A short description of data set [6]: Solubility noted for synthesized compounds. The note with it: noted with the synthesis. In kind it is physicochemical.

Here are results for 10 compounds from patent US20050164903A1, “Complexed surfactant system” (priority 2001, published 2005).

“And” between values parts separate entries of the source, which are not always exact repeats. Equal entries are not always repeated. “Also recorded” adds a separate entry of the source.

Consider “1.6-12-(N,N-methyloctylamino)ethanollhexane [Synthesis Example 17]”, for which, in data set [1], the “Foaming property, result in words” value is reported as “No foaming”. The Surface tension in data set [2] (concentration 0.01%) came to 47.50 mN/m; in data set [2] (concentration 0.1%), 33.90 mN/m; in data set [2] (concentration 1%), 27.91 mN/m. Further, the “Phase stability (appearance of sample solution)” value (shortened to “Phase stability”) in data set [3] is recorded as “cloudiness”. In data set [3] (cationic compound in water), the “Concentration at which the solution became transparent” value is recorded as 0.1 wt %.

Consider `CCCCCCCCCCCCOS(=O)(=O)[O-].[Na+]` [SLS, sodium lauryl sulfate, reference compound], for which, in data set [4], the “Krafft point, when elevating temperature: solution transparent again” value amounted to 14 °C. The “Krafft point, when lowering (dropping) temperature: cloudiness begins” value in data set [4] (sulfate) was 2˜3 °C and 2 °C and 2-3 °C. In addition, in data set [1], the “Foaming property, result in words” value is given as “maintains foam for 5 minutes almost constantly”. Moreover, the “Foaming property, initial foamability, 0 min.” value in data set [1] was 233 mL. For the same compound, the Hard water concentration in data set [5] (stability to hard water) was determined as 310 ppm. Besides, the Surface tension in data set [2] (concentration 0.01%) stood at 57.18 mN/m; in data set [2] (concentration 0.1%) it was 25.19 mN/m; in data set [2] (concentration 1%), 35.92 mN/m.

`CCCCCCCC[N+](C)(C)CCO` [Synthesis Example 2, N-(dimethyloctylamino)ethanol]: the Solubility entry in data set [6] is reported as “insoluble in acetone”.

Turning to `CC[N+](C)(C)CCO` [Synthesis Example 4, N-(dimethylethylamino)ethanol], the Solubility entry in data set [6] is recorded as “soluble in acetone, insoluble in n-hexane”.

On to `C[N+](C)(C)CCO` [Synthesis Example 5, N-(trimethylamino)ethanol], for which, in data set [6], the Solubility result is “insoluble in acetone”.

On to `C[N+](C)(CCO)CCCCCC[N+](C)(C)CCO.[I-].[I-]` [Synthesis Example 14, 1,6-[2-(N,N-dimethylamino)ethanol]hexane], for which the “Foaming property, result in words” value in data set [1] is “did not produced foam; also recorded: No foaming”. For the same compound, the results for the Surface tension in data set [2] (concentration 0.01%), in data set [2] (concentration 0.1%) and in data set [2] (concentration 1%) were 71.41 mN/m, 70.04 mN/m and 59.49 mN/m, respectively. For the same compound, the “Phase stability” value in data set [3] is on record as “transparent”.

As to `CCCCCCCCCCCC[N+](C)(C)[O-]` [Synthesis Example 19, N-Dimethyl Lauryl Amineoxide], the “Foaming property, result in words” value in data set [1] was “foam immediately disappeared”. Also, the “Foaming property, initial foamability, 0 min.” value in data set [1] was found to be 210 mL. Moreover, in data set [1] (1 min.), the “Foaming property, 1 min.” value is 55 mL. In addition, the “Precipitation in hard water” value in data set [5] is “not precipitated”. The Surface tension turned out to be 53.88 mN/m in data set [2] (concentration 0.001%), 31.67 mN/m in data set [2] (concentration 0.01%), 29.59 mN/m in data set [2] (concentration 0.1%) and 31.94 mN/m in data set [2] (concentration 1%). The “Phase stability” value in data set [3] is on record as “transparent”.

Take `CCCC[N+](C)([O-])CCCCCC[N+](C)([O-])CCCC` (stereo not drawn) [Synthesis Example 23, 16-(N,N-butylmethylamineoxyl)hexane]: in data set [1], the “Foaming property, result in words” value is on record as “did not produce foam”. The “Precipitation in hard water” value in data set [5] is on record as “not precipitated”. Also, the Surface tension in data set [2] (concentration 0.01%) was found to be 64.05 mN/m; in data set [2] (concentration 0.1%), 56.46 mN/m; in data set [2] (concentration 1%), 46.51 mN/m. Besides, the “Phase stability” value in data set [3] is recorded as “transparent”.

“N-(butyidimethylamino)ethanol [Synthesis Example 3]”: the Solubility entry in data set [6] is on record as “insoluble in acetone”.

With “N-(dimethyldodecylamino ethanol (EO)4 [Synthesis Example 7]”, the Solubility entry in data set [6] was “soluble in acetone”.
